Experimental data: patent US9994587B2, “HIV protease inhibitors” (priority 2014, dated 2018)
pIC50: −log10 of the molar value.

Biological target: T1, wildtype HIV-1 protease (Human immunodeficiency virus type 1 group M subtype B, UniProt P04585)
T1 construct: preincubated with the HIV-1 protease (wild type) enzyme in assay buffer; made in house; host or cells: Escherichia coli
Experiment: Assay for inhibition of microbial expressed HIV protease (Pepcleav)
Type: biochemical
Conditions: wild type HIV-1 protease 20 pM, peptide substrate 400 micromolar, pH 5.5; mean of at least two independent experiments
Procedure: Assay for Inhibition of Microbial Expressed HIV Protease (“Pepcleav”)
Studies of the inhibition of the wildtype HIV-1 protease (which was expressed in Escherichia coli) were carried out with a peptide substrate [Val-Ser-Gln-Asn-(βnaphtyl)Ala-Pro-Ile-Val (SEQ ID NO 1)]. The inhibitor was first preincubated with the HIV-1 protease (wild type) enzyme in assay buffer (50 mM sodium acetate, pH 5.5, 100 mM NaCl, and 0.1% BSA) for 30 minutes at room temperature. Substrate was added to 400 micromolar in a total volume of 20 microliters containing 20 picomolar HIV-1 protease (final) and the reaction is incubated for 1 hour at 30° C. The reaction was quenched with the addition of formic acid and indinavir to 0.012% and 150 nM final concentrations, respectively. Product formation was determined after separation of product and substrate on a Zorbax Eclipse XDB-C18 column connected to an API 4000 mass spectrometer (Applied Biosystems) with multiple reaction monitoring (transitions were 644.5/428.9 and 615.4/422.2 (M1/M3) for product and indinavir respectively). The extent of inhibition of the reaction was determined from the peak area of the products.

SMILES | pIC50
COC(=O)N[C@H](C(=O)Nc1ccccc1CC[C@@H]1CNC[C@@H](CSc2nnc(-c3ccncc3)o2)O1)C(c1ccccc1)c1ccccc1 [Example 34, methyl N-[(1S)-1-benzhydryl-2-oxo-2-[[2-[2-[(2R,6S)-6-[[5-(4-pyridyl)-1,3,4-oxadiazol-2-yl]sulfanylmethyl]morpholin-2-yl]ethyl]phenyl]amino]ethyl] carbamate] | 9.38
COC(=O)N[C@H](C(=O)Nc1ccccc1CC[C@@H]1CNC[C@@H](CSc2ncnc3[nH]ncc23)O1)C(c1ccccc1)c1ccccc1 [Example 35, methyl N-[(1S)-1-benzhydryl-2-oxo-2-[[2-[2-[(2R,6S)-6-(1H-pyrazolo[3,4-d]pyrimidin-4-ylsulfanylmethyl)morpholin-2-yl]ethyl]phenyl]amino]ethyl] carbamate] | 8.68
COC(=O)N[C@H](C(=O)Nc1ccccc1CC[C@@H]1CNC[C@@H](CSc2ncnc3c2cnn3C)O1)C(c1ccccc1)c1ccccc1 [Example 36, methyl N-[(1S)-1-benzhydryl-2-[[2-[2-[(2R,6S)-6-[(1-methylpyrazolo[3,4-d]pyrimidin-4-yl)sulfanylmethyl]morpholin-2-yl]ethyl]phenyl]amino]-2-oxo-ethyl]carbamate] | 9.03
COC(=O)N[C@H](C(=O)Nc1ccccc1CC[C@@H]1CNC[C@@H](COc2cccc3cc[nH]c23)O1)C(c1ccccc1)c1ccccc1 [Example 38, N-[2-(2-{(2R,6S)-6-[(1H-indol-7-yloxy)methyl]morpholin-2-yl}ethyl)phenyl]-Na-(methoxycarbonyl)-b-phenyl-L-phenylalaninamide] | 6.62
COC(=O)N[C@H](C(=O)Nc1ccccc1CC[C@@H]1CNC[C@@H](COc2ccc3cc[nH]c3c2)O1)C(c1ccccc1)c1ccccc1 [Example 39, N-[2-(2-{(2R,6S)-6-[(1H-indol-6-yloxy)methyl]morpholin-2-yl}ethyl)phenyl]-Na-(methoxycarbonyl)-b-phenyl-L-phenylalaninamide] | 7.00
COC(=O)N[C@H](C(=O)Nc1ccccc1CC[C@@H]1CNC[C@@H](COc2cccc3nn[nH]c23)O1)C(c1ccccc1)c1ccccc1 [Example 40, N-[2-(2-{(2R,6S)-6-[(1H-benzotriazol-7-yloxy)methyl]morpholin-2-yl}ethyl)phenyl]-Na-(methoxycarbonyl)-b-phenyl-L-phenylalaninamide] | 7.17
COC(=O)N[C@H](C(=O)Nc1ccccc1CC[C@@H]1CNC[C@@H](COc2cccc3cn[nH]c23)O1)C(c1ccccc1)c1ccccc1 [Example 41, N-[2-(2-{(2R,6S)-6-[(1H-indazol-7-yloxy)methyl]morpholin-2-yl}ethyl)phenyl]-Na-(methoxycarbonyl)-b-phenyl-L-phenylalaninamide] | 7.59
COC(=O)N[C@H](C(=O)Nc1ccccc1CC[C@@H]1CNC[C@@H](CSc2cccc3ncccc23)O1)C(c1ccccc1)c1ccccc1 [Example 42, methyl [(2S)-1-oxo-3,3-diphenyl-1-{[2-(2-{(2R,6S)-6-[(quinolin-5-ylsulfanyl)methyl]morpholin-2-yl}ethyl)phenyl]amino}propan-2-yl]carbamate] | 9.03
COC(=O)N[C@H](C(=O)Nc1ccccc1CC[C@@H]1CNC[C@@H](COc2ccc(-n3cccn3)cc2)O1)C(c1ccccc1)c1ccccc1 [Example 43, N-α-(methoxycarbonyl)-β-phenyl-N-(2-{2-[(2R,6S)-6-{[4-(1H-pyrazol-1-yl)phenoxy]methyl}morpholin-2-yl]ethyl}phenyl)-L-phenylalaninamide] | 8.33
COC(=O)N[C@H](C(=O)Nc1ccccc1CC[C@@H]1CNC[C@@H](COc2ccc(C(F)(F)F)cc2)O1)C(c1ccccc1)c1ccccc1 [Example 44, N-α-(methoxycarbonyl)-β-phenyl-N-(2-{2-[(2R,6S)-6-{[4-(trifluoromethyl)phenoxy]methyl}morpholin-2-yl]ethyl}phenyl)-L-phenylalaninamide] | 7.85
COC(=O)N[C@H](C(=O)Nc1ccccc1CC[C@@H]1CNC[C@@H](COc2ccc3cn[nH]c3c2)O1)C(c1ccccc1)c1ccccc1 [Example 45, N-[2-(2-{(2R,6S)-6-[(1H-indazol-6-yloxy)methyl]morpholin-2-yl}ethyl)phenyl]-Nα-(methoxycarbonyl)-β-phenyl-L-phenylalaninamide] | 7.96
COC(=O)N[C@H](C(=O)Nc1ccccc1CC[C@@H]1CNC[C@@H](COc2ccc(F)cc2)O1)C(c1ccccc1)c1ccccc1 [Example 46, N-[2-(2-{(2R,6S)-6-[(4-fluorophenoxy)methyl]morpholin-2-yl}ethyl)phenyl]-Nα-(methoxycarbonyl)-β-phenyl-L-phenylalaninamide] | 7.64
COC(=O)N[C@H](C(=O)Nc1ccccc1CC[C@@H]1CNC[C@@H](COc2cccc(F)c2)O1)C(c1ccccc1)c1ccccc1 [Example 47, N-[2-(2-{(2R,6S)-6-[(3-fluorophenoxy)methyl]morpholin-2-yl}ethyl)phenyl]-Nα-(methoxycarbonyl)-β-phenyl-L-phenylalaninamide] | 7.92
COC(=O)N[C@H](C(=O)Nc1ccccc1CC[C@@H]1CNC[C@@H](COc2ccc3ncsc3c2)O1)C(c1ccccc1)c1ccccc1 [Example 48, N-[2-(2-{(2R,6S)-6-[(1,3-benzothiazol-6-yloxy)methyl]morpholin-2-yl}ethyl)phenyl]-Nα-(methoxycarbonyl)-β-phenyl-L-phenylalaninamide] | 8.26
COC(=O)N[C@H](C(=O)Nc1ccccc1CC[C@@H]1CNC[C@@H](COc2ccccc2F)O1)C(c1ccccc1)c1ccccc1 [Example 49, N-[2-(2-{(2R,6S)-6-[(2-fluorophenoxy)methyl]morpholin-2-yl}ethyl)phenyl]-Nα-(methoxycarbonyl)-β-phenyl-L-phenylalaninamide] | 7.85
COC(=O)N[C@H](C(=O)Nc1ccccc1CC[C@@H]1CNC[C@@H](COc2cccnc2C)O1)C(c1ccccc1)c1ccccc1 [Example 50, N-α-(methoxycarbonyl)-N-(2-{2-[(2R,6S)-6-{[(2-methylpyridin-3-yl)oxy]methyl}morpholin-2-yl]ethyl}phenyl)-β-phenyl-L-phenylalaninamide] | 6.89
COC(=O)N[C@H](C(=O)Nc1ccccc1CC[C@@H]1CNC[C@@H](COc2cccc3ncccc23)O1)C(c1ccccc1)c1ccccc1 [Example 51, methyl [(2S)-1-oxo-3,3-diphenyl-1-{[2-[2-{(2R,6S)-6-[(quinolin-5-yloxy)methyl]morpholin-2-yl}ethyl)phenyl]amino}propan-2-yl]carbamate] | 7.85
COC(=O)N[C@H](C(=O)Nc1ccccc1CC[C@@H]1CNC[C@@H](COc2ccc(-c3ccncc3)cc2)O1)C(c1ccccc1)c1ccccc1 [Example 52, N-α-(methoxycarbonyl)-β-phenyl-N-(2-{2-[(2R,6S)-6-{[4-(pyridin-4-yl)phenoxy]methyl}morpholin-2-yl]ethyl}phenyl)-L-phenylalaninamide] | 8.40
COC(=O)N[C@H](C(=O)Nc1ccccc1CC[C@@H]1CNC[C@@H](COc2ccc3c(c2)NCCC3)O1)C(c1ccccc1)c1ccccc1 [Example 53, methyl [(2S)-1-oxo-3,3-diphenyl-1-{[2-(2-{(2R,6S)-6-[(1,2,3,4-tetrahydroquinolin-7-yloxy)methyl]morpholin-2-yl}ethyl)phenyl]amino}propan-2-yl]carbamate] | 7.89
COC(=O)N[C@H](C(=O)Nc1ccccc1CC[C@@H]1CNC[C@@H](CSc2ncccc2Cl)O1)C(c1ccccc1)c1ccccc1 [Example 54, N-(2-{2-[(2R,6S)-6-{[(3-chloropyridin-2-yl)sulfanyl]methyl}morpholin-2-yl]ethyl}phenyl)-Nα-(methoxycarbonyl)-β-phenyl-L-phenylalaninamide] | 9.03
COC(=O)N[C@H](C(=O)Nc1ccccc1CC[C@@H]1CNC[C@@H](COc2ccc(S(N)(=O)=O)cc2)O1)C(c1ccccc1)c1ccccc1 [Example 55, N-α-(methoxycarbonyl)-β-phenyl-N-[2-(2-{(2R,6S)-6-[(4-sulfamoylphenoxy)methyl]morpholin-2-yl}ethyl)phenyl]-L-phenylalaninamide] | 7.92
COC(=O)N[C@H](C(=O)Nc1ccccc1CC[C@@H]1CNC[C@@H](CS(=O)(=O)c2ccc(Cl)cc2)O1)C(c1ccccc1)c1ccccc1 [Example 56, methyl N-[(1S)-1-benzhydryl-2-[[2-[2-[(2R,6S)-6-[(4-chlorophenyl)sulfonylmethyl]morpholin-2-yl]ethyl]phenyl]amino]-2-oxo-ethyl]carbamate] | 6.96
COC(=O)N[C@H](C(=O)Nc1ccccc1CC[C@@H]1CNC[C@@H](C[S+]([O-])c2ccc(Cl)cc2)O1)C(c1ccccc1)c1ccccc1 (stereo partly drawn) [Example 57, methyl N-[(1S)-1-benzhydryl-2-[[2-[2-[(2R,6S)-6-[(4-chlorophenyl)sulfinylmethyl]morpholin-2-yl]ethyl]phenyl]amino]-2-oxo-ethyl]carbamate] | 6.55
COC(=O)N[C@H](C(=O)Nc1ccccc1OC[C@@H]1CNC[C@@H](CSc2ccc(Cl)cc2)O1)C(c1ccccc1)c1ccccc1 [Example 58, methyl N-[(1S)-1-benzhydryl-2-[[2-[[(2S,6S)-6-[(4-chlorophenyl)sulfanylmethyl]morpholin-2-yl]methoxy]phenyl]amino]-2-oxo-ethyl]carbamate] | 8.09
